We go through 19 molecules from US6869961B2, “Store operated calcium influx inhibitors and methods of use” (Cellegy Pharmaceuticals, Inc., priority 2001, dated 2005).

Assay [1] concerns IL-2. The assay can be described thus: IL-2 release from Jurkat cells (PMA and ionomycin, ELISA). Format: cell-based, human. Particulars: for IC50: Homo sapiens, Jurkat, Table III, 'the foregoing assay' of Example 2. As to the method: Since NFAT plays a critical role in IL-2 and TNFα gene transcription, the effects of the novel compounds on IL-2 and TNFα secretion from stimulated lymphoid cells were also investigated. Jurkat cells, in standard medium, were seeded into 24-well dishes at 1 million cells per well and were treated as follows: […], then stimulated with 20 ng/mL PMA and 1 μg/mL ionomycin for 5 hours. Following centrifugation, the supernatants were analyzed for IL-2 content by ELISA using a standard protocol.
On the technique in general: ELISA stands for enzyme-linked immunosorbent assay.

The next assay deals with NFAT. As to the kind of experiment: NFAT-regulated luciferase reporter assay in Jurkat cells. Particulars: for inhibition of NFAT activity: NFAT reporter assay, Jurkat cells. Format: cell-based, human. As to the method:
The biological activity of column fractions and crystalline material was assessed in the NFAT activation assay using Jurkat cells stably transfected with NFAT-regulated luciferase reporter (see, FIGS. 9-14).
Jurkat cells, in standard medium, were seeded in 24-well dishes at 1 million cells per well and treated as follows. […] The cells were harvested 5 hours later and luciferase activity was measured in a luminometer.
(In general: A reporter such as luciferase makes a cellular process visible.)

Assay [2] concerns IL-2. As to the kind of experiment: PBMC IL-2 release. Format: cell-based. Particulars: FIG. 3.
The next assay deals with TNF-alpha. As to the kind of experiment: PBMC TNF-alpha release. Format: cell-based. Particulars: FIG. 4.
For another assay, the system named is TNBS-induced colitis. As to the kind of experiment: Rat TNBS-induced colitis model. Format: in vivo. Particulars: 50 mg/kg/day intracolonically, two weeks, day 14. The text has this: Human inflammatory bowel disease (IBD) is a chronic relapsing and remitting disease of unknown etiology that affects individuals of both sexes throughout life. The factors contributing to the two main forms of the disease, Crohn's disease and ulcerative colitis, are complex and probably involve abnormal immune responses and commensal intestinal microflora. A number of experimental models of intestinal inflammation have been developed, including those based on intracolonic instillation of 2,4,6-trinitrobenzene sulfonic acid (TNBS). TNBS-induced colitis shares many of the histopathological and clinical features of Crohn's disease, i.e. it is to some extent immune-mediated, produces long lasting ulcerative damage and thickening of the bowel wall, granulocyte and mononuclear cell infiltration and granuloma formation, and transmural inflammation of the mucosa, (Morris et al., Gastroenterology 96:795-803, 1989). This model has been widely used to evaluate potential treatments for colonic inflammation.
In the present study, the local anti-inflammatory effects of lovastatin were assessed in the rat TNBS-induced colitis model. Colitis was induced in male Wistar rats weighing 175-225 g by intracolonic instillation of the hapten TNBS (60 mg/ml) in 0.5 ml of 50% ethanol. Groups of 8 rats received the lovastatin formulation prepared in Example 11 (50 mg/kg/day), a positive control, budesonide (2.5 mg/kg/day), or vehicle (0.5% sodium carboxymethylcellulose) intracolonically 1 hour after induction of colitis, and at 12 h intervals thereafter for two weeks. The rats received 0.5 ml of test drug or vehicle at each dosing. On day 14 after induction of colitis, the animals were euthanized and the distal colon was removed and pinned out on a wax platform. The presence or absence of diarrhea was noted, as was the presence and severity of adhesions between the colon and other organs. The severity of colonic damage was scored using the criteria described in Appleyard and Wallace, Am. J. Physiol. 269 (Gastrointest.Liver Physiol. 32): G119-G125, 1995. […]

The subject of the next assay is JNK. As to the kind of experiment: JNK phosphorylation in Jurkat T cells (Western blot). It counts as cell-based, human. On the set-up: dose or concentration left out as unconfirmed. Particulars: lovastatin. An excerpt: Cells were harvested, lysates prepared, and proteins Western blotted using antibodies directed against JNK or phospho-JNK (Thr183/Thr185).
Assay [3] deals with oxazolone-induced contact hypersensitivity response. Particulars: mouse, FIG. 6.
For assay [4], the system named is rat basophilic leukemia (2H3) cells. The assay can be described thus: 5-HT release from rat basophilic leukemia (2H3) cells. It counts as cell-based. Particulars: FIG. 5.
The subject of a further assay is IFN-gamma. The assay can be described thus: IFN-gamma production from Jurkat cells. It counts as cell-based, human.
The subject of the next assay is Crohn's disease. The assay can be described thus: Maintenance therapy of Crohn's disease in remission. Particulars: Crohn's disease subjects in remission. Format: in vivo, human.
In a further assay the test system is IL-8. As to the kind of experiment: IL-8 production from Jurkat cells. Format: cell-based, human.
In a further assay the test system is NF-κB. As to the kind of experiment: NF-κB luciferase reporter in Jurkat T cells. It counts as cell-based, human. Particulars: 20 μg/ml, 5 hr. Here is the method: The next day, cells were preincubated with lovastatin (20 μg/ml) or vehicle control for 15 min, and then stimulated with PMA (20 ng/ml), ionomycin (1 μg/ml), or PMA+ionomycin for 5 hr. The cells were harvested, lysed, and lysates assayed for firefly luciferase and Renilla luciferase activity measured in a luminometer.

From the text for Crohn's disease: Remission is defined as no need for oral prednisone and presence of a score of 150 or less on the Crohn's Disease Activity Index. This index incorporates eight items: the number of liquid or very soft stools in the seven days preceding the assessment, the severity of abdominal pain, general well-being, the presence or absence of an abdominal mass or extra-intestinal manifestation of the disease, the use of opiates to treat diarrhea, hematocrit, and weight. Scores in this index can range from 0 to approximately 600. Higher scores indicate greater disease activity.
Upon reaching remission, the subject takes lovastatin orally (Mevacor, 20-1000 mg) every day, in addition to one or more of the following: controlled release lovastatin tablet(s) targeting specific disease sites, lovastatin enema(s), or lovastatin rectal suppositories on a regular basis. On average, 50-60% of Crohn's disease subjects in remission relapse in 40 weeks.

Regarding `O=C1C[C@@H](O)C[C@H](CCc2ccccc2)O1`, in the assay with IL-2 [1], the IC50 came to 150 µM.

With `CC(C)c1c(C(=O)Nc2ccccc2)c(-c2ccccc2)c(-c2ccc(F)cc2)n1CC[C@@H](O)C[C@@H](O)CC(=O)O` [atorvastatin], the “inhibition of NFAT activity” value in the assay on NFAT is “inactive”.

Molecule `O=C1C=C(CCc2ccccc2)CO1` gave an IC50 in the assay on IL-2 [1] above 50 µM.

With `CC[C@H](C)C(=O)O[C@H]1C[C@@H](C)C=C2C=C[C@H](C)[C@H](CC[C@@H]3C[C@@H](O)CC(=O)O3)[C@H]21` [lovastatin], the “inhibition of PBMC IL-2 release” value in the assay with IL-2 [2] is given as “inhibition”. Also, the “inhibition of PBMC TNF-alpha release” value with TNF-alpha was “inhibition”. In the assay on TNBS-induced colitis, the “colonic MPO activity” value is recorded as “reduced”, the colonic damage score entry is listed as “significant (p<0.05) reduction” and the global colitis score result is “significant (p<0.05) reduction”. For the same molecule, the “PMA-induced JNK phosphorylation” value with JNK is listed as “little effect”. For the same molecule, in the assay on JNK (15 min pre-incubation, 30 min stimulation), the “JNK phosphorylation induced by PMA+ionomycin” value is on record as “inhibits”. In addition, in assay [3], the “inhibition of oxazolone-induced contact hypersensitivity response” value was “inhibition”. Also, the “inhibition of 5-hydroxytryptomine (5-HT) release” value in [4] is “inhibition”. Moreover, the “inhibition of NFAT activity” value with NFAT is reported as “able to inhibit”. The “inhibition of IFN-gamma production” value with IFN-gamma is given as “inhibition”. In addition, the disease activity result in the assay with Crohn's disease is “less severe”. Besides, the “remission time between relapse” value in the assay with Crohn's disease (oral 20-1000 mg every day plus local forms) is “longer”. For the same molecule, in the assay with IL-8, the “inhibition of IL-8 production” value is given as “inhibition”. For the same molecule, the “calcium-dependent NF-κB activation (ionomycin synergy with PMA)” value with NF-κB is “strongly inhibits”. Moreover, the “inhibition of Jurkat IL-2 release” value with IL-2 [1] (FIG. 2) was “inhibition”.

As for `CC(C)n1c(/C=C/C(O)CC(O)CC(=O)O)c(-c2ccc(F)cc2)c2ccccc21` (stereo not shown) [fluvastatin], in the assay with NFAT, the “inhibition of NFAT activity” value was “inactive”.

Consider `O=C1CCCC(CCc2ccccc2)O1` (stereo not shown), for which the concentration for half-maximal inhibition (IC50) in the assay on IL-2 [1] was above 50 µM.

Molecule `O=C1CCC(CCc2ccccc2)O1` (stereo not shown) yielded an IC50 in the assay on IL-2 [1] above 50 µM.

As for `CN1C(=O)N(c2cc(Cl)cc(Cl)c2)C(=O)C1(C)Cc1ccc(Br)cc1` (single isomer, unassigned) [BIRT377 less active enantiomer], in the assay with NFAT, the “inhibition of NFAT activity” value was “very weak NFAT inhibitory activity”.

`CCOC(=O)/C=C/C=C/C=C/c1ccccc1` returned an IC50 in the assay on IL-2 [1] of 4 to 12 µM.

`O=C1C=CCC(CCc2ccccc2)O1` (stereo not shown): the half-maximal inhibitory concentration (IC50) in the assay on IL-2 [1] is 5 µM.

In turn, `O=C1C[C@H](O)C[C@H](CCc2ccccc2)O1` showed an IC50 in the assay on IL-2 [1] of 300 µM.

Turning to `CC[C@H](C)C(=O)O[C@H]1CCC=C2C=C[C@H](C)[C@H](CC[C@@H]3C[C@@H](O)CC(=O)O3)[C@H]21` [mevastatin], the “inhibition of NFAT activity” value is “able to inhibit” in the assay on NFAT and “active” in the assay with NFAT (listed as mevastatin lactone form).

Regarding `CN1C(=O)N(c2cc(Cl)cc(Cl)c2)C(=O)[C@@]1(C)Cc1ccc(Br)cc1` [BIRT377], the “inhibition of NFAT activity” value in the assay with NFAT is “very weak NFAT inhibitory activity”.

Regarding `O=C1C=CC(CCc2ccccc2)O1` (stereo not shown), the half-inhibitory concentration (IC50) in the assay with IL-2 [1] is 15 µM.

Regarding `CCC(C)C(=O)OC1CCC=C2C=CC(C)C(CCC(O)CC(O)CC(=O)O)C21` (stereo not shown) [mevastatin open chain form], the “inhibition of NFAT activity” value in the assay on NFAT was “only the lactone form was active”.

With `COC(=O)/C=C/C=C/C=C/c1c(-c2ccc(F)cc2)c2ccccc2n1C(C)C` [drawing 85], inhibition with IL-2 [1] was half-maximal at 3 µM (IC50).

For `CC[C@H](C)C(=O)O[C@H]1C[C@H](O)C=C2C=C[C@H](C)[C@H](CC[C@@H](O)C[C@@H](O)CC(=O)O)[C@H]21` [Pravastatin, pravastatin], the “inhibition of NFAT activity” value in the assay with NFAT was “inactive”.

`CCOC(=O)/C=C/C=C/CCc1ccccc1`: the IC50 in the assay with IL-2 [1] fell in the range of 12 to 40 µM.

As to `COC(=O)/C=C/C=C/C=C/c1c(-c2ccc(F)cc2)c2ccccc2n1C(C)C` [Compound 1079-76-3C], in the assay on NFAT (5 μg/mL, 0.3 μM TG + 20 ng/mL PMA, 5 hours), the “inhibition of TG+PMA-induced NFAT activity” value is “approximately 85%”. In the assay with NFAT (Jurkat cells stimulated with ionomycin + PMA or thapsigargin + PMA), the “expression of NFAT-regulated reporter gene” value is “inhibited”. In addition, the “IL-2 release by PMA and ionomycin in Jurkat cells” value in the assay with IL-2 [1] (5.0 μg/mL, 30 min pre-incubation, 5 hours) is recorded as “inhibit”.

By IC50 is commonly meant the point on the concentration scale where inhibition reaches its midpoint.
